According to patent US9186318B2, “Quinolyl-containing hydroxamic acid compound and preparation method thereof, and pharmaceutical composition containing this compound and use thereof” (Beijing Konruns Pharmaceutical Co., Ltd, priority 2011, dated 2015):

Assays:
Test in all cases: KinomeScan 96-kinase panel
Assay type in all cases: binding
Conditions in all cases: compound concentration 1000 nM
PIK3CA = PIK3CA (Homo sapiens (Human), UniProt P42336)
Text: (§1) The details of the screening technology were described in Fabian, M. A. et al, Nat., Biotechnol. 2005, 23, 329 and Karaman, M. W. et al, Nat., Biotechnol. 2008, 26, 127. From the above representative results, it can be seen that the compounds of the present invention have potent inhibitory activities on kinases including ALK, AXL, VEGFR2, PDGFR-α, PDGFR-β, c-KIT, Flt3, MEK1, MEK2, CSF1R, EPHA2, EPHA2, MKNK2, SRC, TIE2 and their mutants. Accordingly, the compounds of the present invention can be used for the treatment of diseases caused by abnormal activities of these kinases, e.g., cancer, psoriasis, hepatic cirrhosis, diabetes, diseases involving angiogenesis, eye diseases, immune system diseases, cardiovascular diseases, and so forth.

ROCK2 = ROCK2 (Homo sapiens (Human), UniProt O75116)
Text: as §1

YANK3 = YANK3 (Homo sapiens (Human), UniProt Q86UX6)
Text: as §1

TSSK1B = TSSK1B (Homo sapiens (Human), UniProt Q9BXA7)
Text: as §1

BMPR2 = BMPR2 (Homo sapiens (Human), UniProt Q13873)
Text: as §1

ALK = ALK (Homo sapiens (Human), UniProt Q9UM73)
Text: as §1

EGFR = EGFR (Homo sapiens (Human), UniProt P00533)
Text: as §1

CSNK1D = CSNK1D (Homo sapiens (Human), UniProt P48730)
Text: as §1

BRAF(V600E) = BRAF(V600E) (Homo sapiens (Human), UniProt P15056, V600E)
Text: as §1

AURKA = AURKA (Homo sapiens (Human), UniProt O14965)
Text: as §1

MET = MET (Homo sapiens (Human), UniProt P08581)
Text: as §1

FLT3 = FLT3 (Homo sapiens (Human), UniProt P36888)
Text: as §1

KIT = KIT (Homo sapiens (Human), UniProt P10721)
Text: as §1

JNK3 = JNK3 (Homo sapiens (Human), UniProt P53779)
Text: as §1

PIK3CG = PIK3CG (Homo sapiens (Human), UniProt P48736)
Text: as §1

MLK1 = MLK1 (Homo sapiens (Human), UniProt P80192)
Text: as §1

KIT (V559D, T670I) = KIT (V559D, T670I) (Homo sapiens (Human), UniProt P10721, T670I/V559D)
Text: as §1

PLK3 = PLK3 (Homo sapiens (Human), UniProt Q9H4B4)
Text: as §1

AURKB = AURKB (Homo sapiens (Human), UniProt Q96GD4)
Text: as §1

FGFR3 = FGFR3 (Homo sapiens (Human), UniProt P22607)
Text: as §1

ACVR1B = ACVR1B (Homo sapiens (Human), UniProt P36896)
Text: as §1

SRPK3 = SRPK3 (Homo sapiens (Human), UniProt Q9UPE1)
Text: as §1

PIM3 = PIM3 (Homo sapiens (Human), UniProt Q86V86)
Text: as §1

RIOK2 = RIOK2 (Homo sapiens (Human), UniProt Q9BVS4)
Text: as §1

KIT (D816V) = KIT (D816V) (Homo sapiens (Human), UniProt P10721, D816V)
Text: as §1

PAK4 = PAK4 (Homo sapiens (Human), UniProt O96013)
Text: as §1

PLK4 = PLK4 (Homo sapiens (Human), UniProt O00444)
Text: as §1

JNK2 = JNK2 (Homo sapiens (Human), UniProt P45984)
Text: as §1

FGFR2 = FGFR2 (Homo sapiens (Human), UniProt P21802)
Text: as §1

CDK11 = CDK11 (Homo sapiens (Human), UniProt Q9BWU1)
Text: as §1

MEK1 = MEK1 (Homo sapiens (Human), UniProt Q02750)
Text: as §1

LKB1 = LKB1 (Homo sapiens (Human), UniProt Q15831)
Text: as §1

ERBB4 = ERBB4 (Homo sapiens (Human), UniProt Q15303)
Text: as §1

CDK2 = CDK2 (Homo sapiens (Human), UniProt P24941)
Text: as §1

ABL1-phosphorylated = ABL1-phosphorylated (Homo sapiens (Human), UniProt P00519)
Text: as §1

CDK7 = CDK7 (Homo sapiens (Human), UniProt P50613)
Text: as §1

CHEK1 = CHEK1 (Homo sapiens (Human), UniProt O14757)
Text: as §1

PLK4, sequence (O00444 whole entry): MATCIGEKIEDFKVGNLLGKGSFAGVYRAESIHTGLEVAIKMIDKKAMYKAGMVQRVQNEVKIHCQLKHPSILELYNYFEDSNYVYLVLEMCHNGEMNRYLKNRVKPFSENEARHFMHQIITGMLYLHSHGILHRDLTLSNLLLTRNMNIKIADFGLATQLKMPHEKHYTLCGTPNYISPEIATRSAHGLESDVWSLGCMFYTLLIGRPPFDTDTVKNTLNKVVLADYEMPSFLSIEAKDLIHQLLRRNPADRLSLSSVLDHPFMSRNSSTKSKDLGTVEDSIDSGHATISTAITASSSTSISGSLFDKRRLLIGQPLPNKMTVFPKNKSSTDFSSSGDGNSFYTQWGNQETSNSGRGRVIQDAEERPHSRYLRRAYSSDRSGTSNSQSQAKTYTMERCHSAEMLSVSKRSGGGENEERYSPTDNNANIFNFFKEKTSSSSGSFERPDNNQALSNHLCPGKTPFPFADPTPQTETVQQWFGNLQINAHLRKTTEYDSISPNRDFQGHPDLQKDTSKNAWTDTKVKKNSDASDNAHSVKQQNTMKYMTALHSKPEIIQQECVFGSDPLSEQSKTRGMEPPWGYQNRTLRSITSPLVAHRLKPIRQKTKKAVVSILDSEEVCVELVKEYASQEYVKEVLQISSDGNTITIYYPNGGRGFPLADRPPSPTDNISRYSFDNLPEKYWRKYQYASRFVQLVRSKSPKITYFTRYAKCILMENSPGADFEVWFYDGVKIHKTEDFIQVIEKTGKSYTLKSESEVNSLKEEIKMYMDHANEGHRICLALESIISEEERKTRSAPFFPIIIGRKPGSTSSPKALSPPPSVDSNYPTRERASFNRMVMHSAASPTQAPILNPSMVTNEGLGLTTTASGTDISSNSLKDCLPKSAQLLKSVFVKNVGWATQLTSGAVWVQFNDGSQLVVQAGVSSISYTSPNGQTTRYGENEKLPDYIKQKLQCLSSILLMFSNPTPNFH
AURKB, sequence (Q96GD4 whole entry): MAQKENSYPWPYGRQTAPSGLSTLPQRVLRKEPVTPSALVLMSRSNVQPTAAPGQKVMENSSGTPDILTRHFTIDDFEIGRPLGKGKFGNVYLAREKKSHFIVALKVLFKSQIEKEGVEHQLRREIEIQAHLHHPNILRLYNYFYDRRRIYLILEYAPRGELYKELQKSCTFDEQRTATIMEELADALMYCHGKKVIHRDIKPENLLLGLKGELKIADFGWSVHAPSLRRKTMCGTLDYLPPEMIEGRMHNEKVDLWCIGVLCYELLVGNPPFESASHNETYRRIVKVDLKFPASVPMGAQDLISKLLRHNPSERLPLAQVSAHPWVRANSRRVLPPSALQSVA
BRAF(V600E), sequence (P15056 whole entry V600E): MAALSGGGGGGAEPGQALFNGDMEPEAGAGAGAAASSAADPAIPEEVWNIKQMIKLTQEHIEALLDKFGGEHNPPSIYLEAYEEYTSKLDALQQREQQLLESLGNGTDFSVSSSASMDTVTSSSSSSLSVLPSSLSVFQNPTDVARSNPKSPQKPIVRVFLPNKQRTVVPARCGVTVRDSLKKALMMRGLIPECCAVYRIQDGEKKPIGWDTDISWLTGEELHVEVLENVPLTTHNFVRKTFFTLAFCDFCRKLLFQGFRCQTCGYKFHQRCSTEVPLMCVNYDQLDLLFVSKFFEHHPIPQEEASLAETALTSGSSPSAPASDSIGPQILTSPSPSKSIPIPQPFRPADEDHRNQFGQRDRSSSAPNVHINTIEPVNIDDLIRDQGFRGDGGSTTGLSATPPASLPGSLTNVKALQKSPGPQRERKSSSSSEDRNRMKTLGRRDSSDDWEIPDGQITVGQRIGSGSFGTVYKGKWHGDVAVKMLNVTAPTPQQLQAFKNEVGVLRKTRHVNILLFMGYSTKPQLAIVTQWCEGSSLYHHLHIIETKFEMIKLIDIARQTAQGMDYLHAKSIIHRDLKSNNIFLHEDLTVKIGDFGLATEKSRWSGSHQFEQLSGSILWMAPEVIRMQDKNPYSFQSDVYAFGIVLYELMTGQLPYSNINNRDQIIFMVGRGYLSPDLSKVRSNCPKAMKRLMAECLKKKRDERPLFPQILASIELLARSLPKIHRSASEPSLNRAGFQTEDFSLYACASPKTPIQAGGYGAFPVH
PIK3CA, sequence (P42336 whole entry): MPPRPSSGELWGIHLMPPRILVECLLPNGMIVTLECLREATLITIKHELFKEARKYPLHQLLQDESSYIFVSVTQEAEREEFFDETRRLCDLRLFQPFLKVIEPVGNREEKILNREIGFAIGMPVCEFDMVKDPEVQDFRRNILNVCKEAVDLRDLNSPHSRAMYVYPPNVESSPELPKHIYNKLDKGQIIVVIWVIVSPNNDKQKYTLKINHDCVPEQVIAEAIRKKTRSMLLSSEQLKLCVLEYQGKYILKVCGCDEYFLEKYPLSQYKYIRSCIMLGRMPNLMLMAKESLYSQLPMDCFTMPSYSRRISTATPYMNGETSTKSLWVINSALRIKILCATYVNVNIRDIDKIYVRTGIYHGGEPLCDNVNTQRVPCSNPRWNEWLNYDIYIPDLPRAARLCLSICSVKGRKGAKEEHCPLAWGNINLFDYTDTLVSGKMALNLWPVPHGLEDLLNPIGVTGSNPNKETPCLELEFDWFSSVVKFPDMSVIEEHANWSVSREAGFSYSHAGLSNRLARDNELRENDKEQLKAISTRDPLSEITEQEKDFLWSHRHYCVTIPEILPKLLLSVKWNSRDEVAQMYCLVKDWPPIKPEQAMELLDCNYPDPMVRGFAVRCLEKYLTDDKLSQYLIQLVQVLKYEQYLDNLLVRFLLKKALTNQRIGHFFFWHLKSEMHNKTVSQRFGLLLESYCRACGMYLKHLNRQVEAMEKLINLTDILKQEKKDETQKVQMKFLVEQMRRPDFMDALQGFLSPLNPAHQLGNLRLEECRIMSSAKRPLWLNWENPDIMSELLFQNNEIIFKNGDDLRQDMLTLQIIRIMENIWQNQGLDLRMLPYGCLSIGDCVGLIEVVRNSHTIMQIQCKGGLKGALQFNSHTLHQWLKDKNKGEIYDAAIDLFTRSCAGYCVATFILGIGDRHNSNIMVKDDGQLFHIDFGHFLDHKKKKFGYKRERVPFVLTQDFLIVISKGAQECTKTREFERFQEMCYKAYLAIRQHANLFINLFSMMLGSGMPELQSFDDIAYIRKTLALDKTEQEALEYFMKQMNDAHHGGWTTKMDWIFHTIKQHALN
FGFR3, sequence (P22607 23-806): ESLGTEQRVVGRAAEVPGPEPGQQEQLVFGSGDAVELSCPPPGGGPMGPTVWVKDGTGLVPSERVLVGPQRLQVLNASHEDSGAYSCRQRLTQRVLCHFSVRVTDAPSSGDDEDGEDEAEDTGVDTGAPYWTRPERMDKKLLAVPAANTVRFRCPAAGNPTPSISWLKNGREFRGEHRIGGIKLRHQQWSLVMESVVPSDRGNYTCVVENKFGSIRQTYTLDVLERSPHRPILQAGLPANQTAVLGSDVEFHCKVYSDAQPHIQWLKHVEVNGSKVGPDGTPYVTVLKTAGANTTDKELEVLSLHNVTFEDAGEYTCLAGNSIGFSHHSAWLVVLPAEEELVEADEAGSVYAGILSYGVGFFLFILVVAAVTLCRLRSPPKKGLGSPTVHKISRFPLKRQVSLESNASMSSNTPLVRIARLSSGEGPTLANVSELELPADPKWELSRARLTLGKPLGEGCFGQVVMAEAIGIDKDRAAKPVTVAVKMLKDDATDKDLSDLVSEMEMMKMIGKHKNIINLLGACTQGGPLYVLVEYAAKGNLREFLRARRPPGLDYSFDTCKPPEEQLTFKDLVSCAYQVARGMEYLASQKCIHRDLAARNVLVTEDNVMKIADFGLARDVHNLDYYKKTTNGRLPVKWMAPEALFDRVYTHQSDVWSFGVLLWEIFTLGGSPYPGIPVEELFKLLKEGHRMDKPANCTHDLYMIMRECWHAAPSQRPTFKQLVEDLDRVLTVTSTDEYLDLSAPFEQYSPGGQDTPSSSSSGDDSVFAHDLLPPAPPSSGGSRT
TSSK1B, sequence (Q9BXA7 whole entry): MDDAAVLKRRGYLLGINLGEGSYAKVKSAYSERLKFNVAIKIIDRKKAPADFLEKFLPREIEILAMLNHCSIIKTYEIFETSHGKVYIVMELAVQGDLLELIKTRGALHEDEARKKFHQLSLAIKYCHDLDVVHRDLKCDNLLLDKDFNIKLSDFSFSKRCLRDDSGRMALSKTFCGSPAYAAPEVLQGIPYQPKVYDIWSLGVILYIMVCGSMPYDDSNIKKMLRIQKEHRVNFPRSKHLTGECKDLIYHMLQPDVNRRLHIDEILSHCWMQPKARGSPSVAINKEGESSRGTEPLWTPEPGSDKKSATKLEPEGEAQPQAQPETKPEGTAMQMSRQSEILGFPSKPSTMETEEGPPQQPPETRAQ
CDK7, sequence (P50613 whole entry): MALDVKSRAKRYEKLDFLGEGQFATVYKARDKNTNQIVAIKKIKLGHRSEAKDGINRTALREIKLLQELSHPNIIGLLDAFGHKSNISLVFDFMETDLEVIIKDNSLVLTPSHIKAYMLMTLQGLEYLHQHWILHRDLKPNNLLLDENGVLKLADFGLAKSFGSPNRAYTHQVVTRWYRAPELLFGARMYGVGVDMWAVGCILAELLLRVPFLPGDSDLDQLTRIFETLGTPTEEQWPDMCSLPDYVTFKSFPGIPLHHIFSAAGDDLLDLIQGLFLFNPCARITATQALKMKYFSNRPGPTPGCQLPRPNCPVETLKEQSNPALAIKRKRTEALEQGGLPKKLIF

% Ctrl@1000 nM (PIK3CA): 100 % Ctrl
% Ctrl@1000 nM (ROCK2): 53 % Ctrl
% Ctrl@1000 nM (YANK3): 84 % Ctrl
% Ctrl@1000 nM (TSSK1B): 50 % Ctrl
% Ctrl@1000 nM (BMPR2): 100 % Ctrl
% Ctrl@1000 nM (ALK): 1.2 % Ctrl
% Ctrl@1000 nM (EGFR): 6.8 % Ctrl
% Ctrl@1000 nM (CSNK1D): 54 % Ctrl
% Ctrl@1000 nM (BRAF(V600E)): 88 % Ctrl
% Ctrl@1000 nM (AURKA): 5.2 % Ctrl
% Ctrl@1000 nM (MET): 7.7 % Ctrl
% Ctrl@1000 nM (FLT3): 0.85 % Ctrl
% Ctrl@1000 nM (KIT): 0 % Ctrl
% Ctrl@1000 nM (JNK3): 100 % Ctrl
% Ctrl@1000 nM (PIK3CG): 66 % Ctrl
% Ctrl@1000 nM (MLK1): 32 % Ctrl
% Ctrl@1000 nM (KIT (V559D, T670I)): 0.15 % Ctrl
% Ctrl@1000 nM (PLK3): 100 % Ctrl
% Ctrl@1000 nM (AURKB): 7 % Ctrl
% Ctrl@1000 nM (FGFR3): 64 % Ctrl
% Ctrl@1000 nM (ACVR1B): 90 % Ctrl
% Ctrl@1000 nM (SRPK3): 76 % Ctrl
% Ctrl@1000 nM (PIM3): 100 % Ctrl
% Ctrl@1000 nM (RIOK2): 100 % Ctrl
% Ctrl@1000 nM (KIT (D816V)): 2.2 % Ctrl
% Ctrl@1000 nM (PAK4): 100 % Ctrl
% Ctrl@1000 nM (PLK4): 0.55 % Ctrl
% Ctrl@1000 nM (JNK2): 62 % Ctrl
% Ctrl@1000 nM (FGFR2): 65 % Ctrl
% Ctrl@1000 nM (CDK11): 1.2 % Ctrl
% Ctrl@1000 nM (MEK1): 0.95 % Ctrl
% Ctrl@1000 nM (LKB1): 91 % Ctrl
% Ctrl@1000 nM (ERBB4): 17 % Ctrl
% Ctrl@1000 nM (CDK2): 73 % Ctrl
% Ctrl@1000 nM (ABL1-phosphorylated): 4.8 % Ctrl
% Ctrl@1000 nM (CDK7): 5.8 % Ctrl
% Ctrl@1000 nM (CHEK1): 96 % Ctrl
Structure (SMILES): COc1cc2c(Oc3ccc(NC(=O)C4(C(=O)Nc5ccc(F)cc5)CC4)cc3F)ccnc2cc1OCCCCCC(=O)NO [Example 13, N1′-[3-fluoro-4-[[7-[6-(hydroxyamino)-6-oxohexyloxy]-6-methoxy-4-quinolyl]oxy]phenyl]-N1-(4-fluorophenyl)cyclopropane-1,1-dicarboxamide]
